Experimental data: ChEMBL document CHEMBL1201862, “PubChem BioAssay data set” (2004)
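Where inhibition never reached the appropriate level, the endpoint shown equals the highest concentration tested. Otherwise, values were interpolated linearly from a five-concentration, 48-hour dose response in 96-well plates. GI50 is the concentration that inhibits growth by half.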 The source made the active and inactive calls. No stated cut-off is given here; in the data, active = GI50 up to about 1.1 µM and inactive = higher.

What was measured:
Experiment in all cases: DTP human tumour cell line panel, 48 h
SF-268 = system: SF-268
CAKI-1 = system: CAKI-1
K562 = system: K562
NCI-H226 = system: NCI-H226
Malme-3M = system: Malme-3M
SK-MEL-28 = system: SK-MEL-28
M14 = system: M14
HCC 2998 = system: HCC 2998
RPMI-8226 = system: RPMI-8226
OVCAR-4 = system: OVCAR-4
OVCAR-3 = system: OVCAR-3
EKVX = system: EKVX
U-251 = system: U-251
PC-3 = system: PC-3
OVCAR-8 = system: OVCAR-8
HL-60 = system: HL-60
HT-29 = system: HT-29
A549 = system: A549
MDA-N = system: MDA-N
KM-20L2 = system: KM-20L2

Compound	GI50 (SF-268)	GI50 (CAKI-1)	GI50 (K562)	GI50 (NCI-H226)	GI50 (Malme-3M)	GI50 (SK-MEL-28)	GI50 (M14)	GI50 (HCC 2998)	GI50 (RPMI-8226)	GI50 (OVCAR-4)	GI50 (OVCAR-3)	GI50 (EKVX)	GI50 (U-251)	GI50 (PC-3)	GI50 (OVCAR-8)	GI50 (HL-60)	GI50 (HT-29)	GI50 (A549)	GI50 (MDA-N)	GI50 (KM-20L2)
CCCOc1cc2c(cc1O)CC[C@@H]1[C@@H]2CC[C@]2(C)[C@@H](O)CC[C@@H]12	6.3 µM (inactive)	2.81 µM (inactive)	0.209 µM (active)	5.97 µM (inactive)	6.82 µM (inactive)	8.26 µM (inactive)	1.8 µM (inactive)	4.56 µM (inactive)	1.83 µM (inactive)	15.1 µM (inactive)	1.55 µM (inactive)	6.27 µM (inactive)	1.87 µM (inactive)	4.76 µM (inactive)	4.98 µM (inactive)	0.637 µM (active)	7.57 µM (inactive)	2.99 µM (inactive)	0.22 µM (active)	–
CC(=O)N1CCC(=O)/C(=C/c2ccccc2)C1	20.5 µM (inactive)	15.5 µM (inactive)	37.8 µM (inactive)	> 100 µM (inactive)	91.2 µM (inactive)	18 µM (inactive)	33.8 µM (inactive)	33.1 µM (inactive)	42.7 µM (inactive)	19.3 µM (inactive)	33.3 µM (inactive)	–	17.1 µM (inactive)	–	21.2 µM (inactive)	–	20.3 µM (inactive)	71.9 µM (inactive)	–	27.4 µM (inactive)
c1ccc(C[n+]2ccc3c(c2)CCCC3)cc1	> 100 µM (inactive)	> 100 µM (inactive)	11.7 µM (inactive)	> 100 µM (inactive)	21.4 µM (inactive)	> 100 µM (inactive)	95.7 µM (inactive)	22.9 µM (inactive)	65.9 µM (inactive)	56 µM (inactive)	36.8 µM (inactive)	10.6 µM (inactive)	55.1 µM (inactive)	78 µM (inactive)	> 100 µM (inactive)	29.5 µM (inactive)	50.9 µM (inactive)	77.3 µM (inactive)	> 100 µM (inactive)	–
CCCCN1C(=O)C[C@H]2[C@@H]3CCc4cc(OCCN5CCCC5)ccc4[C@H]3CC[C@]2(C)C1=O	12.9 µM (inactive)	7.96 µM (inactive)	1.74 µM (inactive)	6.53 µM (inactive)	3.89 µM (inactive)	3.45 µM (inactive)	2.03 µM (inactive)	10.3 µM (inactive)	2.96 µM (inactive)	14.1 µM (inactive)	10.6 µM (inactive)	14.5 µM (inactive)	5.51 µM (inactive)	7.48 µM (inactive)	15.1 µM (inactive)	7.1 µM (inactive)	0.979 µM (active)	7.8 µM (inactive)	4.38 µM (inactive)	–
CC1=C(C(=O)Nc2ccccc2)C(c2ccc(Cl)c(Cl)c2)C(C(=O)Nc2ccccc2)=C(C)N1	12 µM (inactive)	–	–	–	12.7 µM (inactive)	12.8 µM (inactive)	11.5 µM (inactive)	–	–	9.75 µM (inactive)	11.7 µM (inactive)	16.6 µM (inactive)	14.5 µM (inactive)	–	13.7 µM (inactive)	–	12.2 µM (inactive)	7.48 µM (inactive)	–	14.9 µM (inactive)
CC(NC(=O)C(N)CC(=O)O)NC(=O)N(C)C(C)(C)C (stereo not drawn)	> 100 µM (inactive)	> 100 µM (inactive)	> 100 µM (inactive)	> 100 µM (inactive)	> 100 µM (inactive)	> 100 µM (inactive)	> 100 µM (inactive)	> 100 µM (inactive)	> 100 µM (inactive)	> 100 µM (inactive)	> 100 µM (inactive)	> 100 µM (inactive)	> 100 µM (inactive)	> 100 µM (inactive)	> 100 µM (inactive)	> 100 µM (inactive)	> 100 µM (inactive)	> 100 µM (inactive)	> 100 µM (inactive)	–
COC(=O)c1c(C)ccc2c(O)c3c(cc12)C(=O)c1c2c(cc(O)c1C3=O)C1(C)OC(C)(O2)C(O)C(N(C)C)C1O (stereo not drawn)	1.05 µM (active)	1.91 µM (inactive)	0.942 µM (active)	2.26 µM (inactive)	2.62 µM (inactive)	4.37 µM (inactive)	1.85 µM (inactive)	0.532 µM (active)	0.946 µM (active)	2.12 µM (inactive)	2.41 µM (inactive)	2.37 µM (inactive)	0.667 µM (active)	1.66 µM (inactive)	0.83 µM (active)	3.98 µM (inactive)	0.577 µM (active)	1.28 µM (inactive)	1.45 µM (inactive)	–
CCNC(=O)OCC1C2=C(C(=O)C(C)=C(N)C2=O)N2CC3C(N3C)C12OC (stereo not drawn)	15.7 µM (inactive)	3.95 µM (inactive)	25.5 µM (inactive)	> 87.7 µM (inactive)	17.6 µM (inactive)	> 81.7 µM (inactive)	9.86 µM (inactive)	14.6 µM (inactive)	14.4 µM (inactive)	26.6 µM (inactive)	21.9 µM (inactive)	> 94.2 µM (inactive)	23.8 µM (inactive)	24.5 µM (inactive)	21.7 µM (inactive)	3.94 µM (inactive)	18.5 µM (inactive)	5.11 µM (inactive)	> 88.5 µM (inactive)	–
Cn1c2ccccc2c2c(-c3ccccc3)cc3c(c21)C(=O)C=CC3=O	3.36 µM (inactive)	1.91 µM (inactive)	0.249 µM (active)	2.18 µM (inactive)	2.06 µM (inactive)	2 µM (inactive)	1.46 µM (inactive)	> 4.88 µM (inactive)	1.15 µM (inactive)	2.46 µM (inactive)	2.05 µM (inactive)	> 5.3 µM (inactive)	4.05 µM (inactive)	3.02 µM (inactive)	2.07 µM (inactive)	0.361 µM (active)	3.83 µM (inactive)	> 10 µM (inactive)	2.37 µM (inactive)	–
O=c1[nH]c2c3ccccc3ccc2c2cc3c(cc12)OCO3	98.6 µM (inactive)	95.9 µM (inactive)	38.5 µM (inactive)	> 100 µM (inactive)	> 100 µM (inactive)	> 100 µM (inactive)	> 100 µM (inactive)	> 100 µM (inactive)	72.8 µM (inactive)	> 100 µM (inactive)	> 100 µM (inactive)	49.2 µM (inactive)	> 100 µM (inactive)	–	> 100 µM (inactive)	–	> 100 µM (inactive)	75.9 µM (inactive)	–	> 100 µM (inactive)
N=C(Cc1ccccc1)NCC(=O)O	> 100 µM (inactive)	> 100 µM (inactive)	> 100 µM (inactive)	> 100 µM (inactive)	> 100 µM (inactive)	> 100 µM (inactive)	> 100 µM (inactive)	> 100 µM (inactive)	> 100 µM (inactive)	> 100 µM (inactive)	> 100 µM (inactive)	> 100 µM (inactive)	> 100 µM (inactive)	> 100 µM (inactive)	> 100 µM (inactive)	> 100 µM (inactive)	> 100 µM (inactive)	> 100 µM (inactive)	> 100 µM (inactive)	–
CN(NC(=O)/C(=C/c1ccc(O)cc1)NC(=O)c1ccccc1)c1ccnc2cc(Cl)ccc12	15.1 µM (inactive)	19.3 µM (inactive)	6.35 µM (inactive)	12.7 µM (inactive)	20 µM (inactive)	19.9 µM (inactive)	19 µM (inactive)	18.1 µM (inactive)	13.4 µM (inactive)	17 µM (inactive)	16.7 µM (inactive)	18.2 µM (inactive)	14.8 µM (inactive)	16.6 µM (inactive)	17.8 µM (inactive)	2.79 µM (inactive)	6.4 µM (inactive)	19.6 µM (inactive)	17.4 µM (inactive)	–
COC(=O)/C(C#N)=C(/NCc1ccccc1)Nc1ccccc1	> 100 µM (inactive)	> 100 µM (inactive)	46.1 µM (inactive)	> 100 µM (inactive)	> 100 µM (inactive)	> 100 µM (inactive)	42.4 µM (inactive)	> 100 µM (inactive)	48.9 µM (inactive)	91 µM (inactive)	72.3 µM (inactive)	50.9 µM (inactive)	> 100 µM (inactive)	46 µM (inactive)	> 100 µM (inactive)	27.8 µM (inactive)	87.7 µM (inactive)	45.1 µM (inactive)	46.9 µM (inactive)	–
C=C1CC(c2ccc(OCCCN3C(=O)c4ccccc4C3=O)cc2)OC1=O (stereo not drawn)	4.32 µM (inactive)	2.37 µM (inactive)	1.52 µM (inactive)	1.46 µM (inactive)	2.54 µM (inactive)	1.81 µM (inactive)	2.55 µM (inactive)	3.78 µM (inactive)	1.12 µM (inactive)	2.45 µM (inactive)	1.86 µM (inactive)	3.9 µM (inactive)	4 µM (inactive)	2.92 µM (inactive)	2.71 µM (inactive)	1.96 µM (inactive)	2.53 µM (inactive)	16 µM (inactive)	2.79 µM (inactive)	–
Cc1cc(N)ccc1/N=N\c1ccc(S(=O)(=O)CCOS(=O)(=O)O)cc1	6.11 µM (inactive)	1.88 µM (inactive)	0.352 µM (active)	3.37 µM (inactive)	1.99 µM (inactive)	1.69 µM (inactive)	0.513 µM (active)	2.01 µM (inactive)	1 µM (active)	10.5 µM (inactive)	3.45 µM (inactive)	27 µM (inactive)	3.05 µM (inactive)	0.292 µM (active)	0.356 µM (active)	0.948 µM (active)	0.767 µM (active)	3.78 µM (inactive)	0.282 µM (active)	–
